# Measurements taken from patent US3997506A (priority 1974, dated 1976).
# Where two headings read alike, the source gives them in different places.
# What was measured:
# [1] = test system: mouse; conditions: intraperitoneal, literature; cited from earlier work
# [2] = test system: man; conditions: may sometimes be of 6 mg only, literature; cited from earlier work
# [3] = test system: human leucocytes; experiment: in vitro; format: cell-based; conditions: for cytotoxicity, colchicine versus derivative (in words): C1 = 2.5 μg/ml; for % of dead cells: C6 = 50 μg/ml
# Description: (§1) The cytotoxicity has been investigated on human leucocytes by means of the viability test with Trypan blue.
# (§2) a. In a first experimentation cultures of leucocytes of a voluntary […] were prepared and caused to undergo incubation with phytohemagglutinin (PHA) and with different concentrations of colchicine or of its derivative (C1 = 2.5 μg/ml of culture, C3 = 10 μg/ml, C5 = 30 μg/ml, C6 = 50 μg/ml). Leucocytes only containing PHA served as controls.
# (§3) After 3, 42, 68 and 72 hours of incubation a sample of each culture was contacted by a drop of Trypan blue and laid on a slide of a microscope. Then took place the counting of the dead cells (those with assumed an […] colour) and of all the cells present on the slide in order to obtain the ratio of the number of dead cells to the total number of cells. The results expressed as a rate in per cent are shown in the accompanying table 8.
# (§4) b. After the experimentation which has just been described, the study of cytotoxicity has been continued with two other samples of human leucocytes still by means of the viability test with Trypan blue.
# (§5) C1 = 2.5 μg/ml of culture
# (§6) C6 = 50 μg/ml of culture;
# (§7) and for the carboxy-1-adamantane fraction to:
# (§8) C3 = 4.5 μg/ml of culture
# (§9) C6 = 22.5 μg/ml of culture.
# (§10) Leucocytes only containing phytohemagglutinin and others containing phytohemagglutinin and 50 μl of methanol served as controls.
# (§11) The percentage of dead cells was determined after different numbers of hours of incubation.
# [4] = in vitro; format: cell-based, human; conditions: human, leucocytes, read-out: % of dead cells
# Description: as §1, §2, §3, §4, §5, §6, §7, §8, §9, §10, §11
# [5] = test system: cat; conditions: intravenous, literature; cited from earlier work
# [6] = test system: phagocytosis; conditions: literature, cited from earlier work
# [7] = test system: rat; conditions: intravenous, literature; cited from earlier work
# [8] = test system: viruses; experiment: Antiviral activity (statement); conditions: general statement
# [9] = test system: animals; experiment: General toxicity statement (LD50 and toxicity relative to thiocolchicine and colchicine); conditions: in vivo
# [10] = as above; conditions: in vivo; of the weight of the body of animals
# [11] = first experimentation, C1 = 2.5 μg/ml
# [12] = first experimentation, C3 = 10 μg/ml
# [13] = first experimentation, C5 = 30 μg/ml
# [14] = first experimentation, C6 = 50 μg/ml
smiles,measurement,setting,value
"COc1cc2c(c(OC)c1OC)-c1ccc(OC)c(=O)cc1[C@@H](NC(C)=O)CC2 [Colchicine, colchicine, reference compound]",LD50,[1],1 mg/kg
same,lethal dose,[2],6 mg
same,"cytotoxicity, cultures I and II (in words)",[3],practically identical with that due to the methanol
same,"cytotoxicity, colchicine versus derivative (in words)",[3]; first experimentation,substantially the same
same,cytotoxicity at 4 h,"[4]; Culture I, C3 = 10 μg/ml",6%
same,cytotoxicity at 4 h,"[4]; Culture I, C6 = 50 μg/ml",9%
same,cytotoxicity at 22 h,"[4]; Culture I, C3 = 10 μg/ml",5%
same,cytotoxicity at 22 h,"[4]; Culture I, C6 = 50 μg/ml",7%
same,cytotoxicity at 46 h,"[4]; Culture I, C3 = 10 μg/ml",24%
same,cytotoxicity at 46 h,"[4]; Culture I, C6 = 50 μg/ml",19%
same,cytotoxicity at 76 h,"[4]; Culture I, C3 = 10 μg/ml",24%
same,cytotoxicity at 76 h,"[4]; Culture I, C6 = 50 μg/ml",23%
same,cytotoxicity at 23 h,"[4]; Culture II, C1 = 2.5 μg/ml",3%
same,cytotoxicity at 23 h,"[4]; Culture II, C3 = 10 μg/ml",4%
same,cytotoxicity at 23 h,"[4]; Culture II, C5 = 30 μg/ml",5%
same,cytotoxicity at 46 h,"[4]; Culture II, C1 = 2.5 μg/ml",11%
same,cytotoxicity at 46 h,"[4]; Culture II, C3 = 10 μg/ml",8%
same,cytotoxicity at 46 h,"[4]; Culture II, C5 = 30 μg/ml",11%
same,cytotoxicity at 72 h,"[4]; Culture II, C1 = 2.5 μg/ml",13%
same,cytotoxicity at 72 h,"[4]; Culture II, C3 = 10 μg/ml",14%
same,cytotoxicity at 72 h,"[4]; Culture II, C5 = 30 μg/ml",18%
same,cytotoxicity at 3 h,[4]; [11],1%
same,cytotoxicity at 3 h,[4]; [12],1%
same,cytotoxicity at 3 h,[4]; [13],0%
same,cytotoxicity at 3 h,[4]; [14],0%
same,cytotoxicity at 42 h,[4]; [11],3%
same,cytotoxicity at 42 h,[4]; [12],2%
same,cytotoxicity at 42 h,[4]; [13],10%
same,cytotoxicity at 42 h,[4]; [14],2%
same,cytotoxicity at 68 h,[4]; [11],6%
same,cytotoxicity at 68 h,[4]; [12],9%
same,cytotoxicity at 68 h,[4]; [13],9%
same,cytotoxicity at 68 h,[4]; [14],21%
same,cytotoxicity at 72 h,[4]; [11],7%
same,cytotoxicity at 72 h,[4]; [13],18%
same,cytotoxicity at 72 h,[4]; [14],24%
same,LD50,[5],0.25 mg/kg
same,% phagocytosis,[6]; 0.004 μg of colchicine,68.6 ± 3.7%
same,% phagocytosis,[6]; 0.04 μg of colchicine,54.2 ± 5.4%
same,% phagocytosis,[6]; 0.4 μg of colchicine,39.8 ± 1.2%
same,LD50,[7],1.7 mg/kg
"COc1cc2c(c(OC)c1OC)-c1ccc(SC)c(=O)cc1C(NC(=O)C13CC4CC(CC(C4)C1)C3)CC2 (single isomer, unassigned) [Derivative, N-desacetyl-N-adamantoyl-thiocolchicine]",activity against viruses (in words),[8],active against many viruses
same,"cytotoxicity, cultures I and II (in words)",[3],does not seem to be very different from that of colchicine or methanol after 23 hours of incubation; however for longer periods of time and more especially with concentrations C5 and C6 it becomes more substantial
same,% of dead cells,"[3]; first experimentation, 68 hours",very few
same,% of dead cells,"[3]; first experimentation, 72 hours",very few
same,"cytotoxicity, colchicine versus derivative (in words)",[3]; first experimentation,substantially the same
same,cytotoxicity compared with colchicine (in words),"[3]; first experimentation, higher concentrations",more cytotoxic than colchicine itself
same,cytotoxicity at 4 h,"[4]; Culture I, C3 = 10 μg/ml",15%
same,cytotoxicity at 4 h,"[4]; Culture I, C6 = 50 μg/ml",17%
same,cytotoxicity at 22 h,"[4]; Culture I, C3 = 10 μg/ml",12%
same,cytotoxicity at 22 h,"[4]; Culture I, C6 = 50 μg/ml",22%
same,cytotoxicity at 46 h,"[4]; Culture I, C3 = 10 μg/ml",42%
same,cytotoxicity at 46 h,"[4]; Culture I, C6 = 50 μg/ml",53%
same,cytotoxicity at 76 h,"[4]; Culture I, C3 = 10 μg/ml",40%
same,cytotoxicity at 76 h,"[4]; Culture I, C6 = 50 μg/ml",62%
same,cytotoxicity at 23 h,"[4]; Culture II, C1 = 2.5 μg/ml",8%
same,cytotoxicity at 23 h,"[4]; Culture II, C3 = 10 μg/ml",11%
same,cytotoxicity at 23 h,"[4]; Culture II, C5 = 30 μg/ml",16%
same,cytotoxicity at 46 h,"[4]; Culture II, C1 = 2.5 μg/ml",4%
same,cytotoxicity at 46 h,"[4]; Culture II, C3 = 10 μg/ml",13%
same,cytotoxicity at 46 h,"[4]; Culture II, C5 = 30 μg/ml",22%
same,cytotoxicity at 72 h,"[4]; Culture II, C1 = 2.5 μg/ml",26%
same,cytotoxicity at 72 h,"[4]; Culture II, C3 = 10 μg/ml",41%
same,cytotoxicity at 72 h,"[4]; Culture II, C5 = 30 μg/ml",43%
same,cytotoxicity at 72 h,"[4]; Culture II, C6 = 50 μg/ml, *x/x = 2 different tubes",61%
same,cytotoxicity at 3 h,[4]; [11],0%
same,cytotoxicity at 3 h,[4]; [12],0%
same,cytotoxicity at 3 h,[4]; [13],0%
same,cytotoxicity at 42 h,[4]; [11],5%
same,cytotoxicity at 42 h,[4]; [12],7%
same,cytotoxicity at 42 h,[4]; [13],23%
same,cytotoxicity at 42 h,[4]; [14],32%
same,cytotoxicity at 68 h,[4]; [11],5%
same,cytotoxicity at 68 h,[4]; [12],9%
same,cytotoxicity at 68 h,[4]; [13],20%
same,cytotoxicity at 72 h,[4]; [11],9%
same,cytotoxicity at 72 h,[4]; [12],12%
same,cytotoxicity at 72 h,[4]; [13],35%
same,high toxicity relative to colchicine,[9],"about 3,000 times less than that of colchicine"
same,toxicity relative to thiocolchicine,[9],30 times less toxic than thiocolchicine
same,LD50,[10],~3000 mg/kg
